Measured values: patent US11685902B2, “Production method for kidney-like tissue” (Tokushima University, priority 2016, dated 2023)

Columns and labels:
[1] = test system: three-dimensional kidney-like tissue (embryonic kidney cells, mesenchymal stem cells, vascular endothelial cells); experiment: Kidney model (podocyte injury): three-dimensional kidney-like tissue exposed to puromycin, nephrin qRT-PCR; type: cell-based; details: puromycin 50 μg/ml, 24 hours, qRT-PCR (FIG. 10)
Method: Embryonic kidney cells, mesenchymal stem cells, and vascular endothelial cells were co-cultured for 24 hours to obtain a self-organized, three-dimensional kidney-like tissue. The kidney-like tissue was exposed to puromycin at a concentration of 50 μg/ml. After 24 hours, spheres were collected. After extraction of RNA, changes in nephrin gene expression were analyzed by the qRT-PCR method (FIG. 10). […] Using this model allows for screening an effective drug for podocyte injury. • 12. Use as Pathophysiological Analysis System for Human Refractory Renal Disease

[2] = test system: three-dimensional kidney-like tissue (embryonic kidney cells, mesenchymal stem cells, proximal renal tubular cells, vascular endothelial cells); type: cell-based
Method: Embryonic kidney cells, mesenchymal stem cells, proximal renal tubular cells, and vascular endothelial cells were co-cultured for 24 hours to obtain a self-organized, three-dimensional kidney-like tissue (FIG. 9 (A)). This was exposed to cisplatin at a concentration of 5 μM, and spheres were collected after 3 hours and after 24 hours. After extraction of RNA, changes in gene expression were analyzed by the RT-PCR method. After the culture solution of the spheres was collected and cell components were separated by centrifugation, β2 microglobulin was measured with a “Lumipulse Presto β2-M” (produced by Fujirebio, Inc.) kit (FIG. 9 (B)). Further, changes in the shape of the spheres were imaged using an optical microscope (FIG. 9 (C)). […] Use of Microspheres as Kidney Model (Podocyte Injury)

[3] = test system: kidney-like microspheres (HUVEC, hMSC, HEK, hMC, HK2); type: cell-based, human
Method: Kidney-like organoids were produced in vitro by co-culturing endothelial cells (HUVEC), mesenchymal stem cells (hMSC), and human embryonic kidney cells (HEK) with human mesangial cells (hMC) and human renal tubular cells (HK2). 5×10^4 hMSC, 2×10^5 HUVEC, 5×10^4 HEK, 5×10^4 hMC, and 5×10^4 HK 2 were suspended in 2 ml 10% FCS or MSCGM, and seeded in a MicroWell culture plate. After incubation in a 5% CO2 humidified incubator at 37° C. for 24 hours, formation of cell aggregates and microspheres was observed (FIG. 6). The resulting kidney-like microspheres maintained their spherical morphology for 20 days or longer. • 7. Analysis of Gene Expression
RT-PCR analysis was performed on mRNA of kidney-like microspheres using five types of cells. Total RNA was extracted from the spheres using a TRIzol reagent (Invitrogen), and reverse-transcribed with an oligo (dT) primer using a SuperScript First-Strand Synthesis kit (Invitrogen) to produce first-strand cDNA. Subsequently, PCR was performed to detect the expression of renal tubular cell-specific genes, renal tubular injury marker (epithelial-mesenchymal transition (EMT)) genes, and GAPDH. […] The influence of cisplatin was analyzed by adding cisplatin to the culture solution to a final concentration of 5 μM, and extracting RNA after 3 hours and after 24 hours for analysis. […]

COc1ccc(C[C@H](N)C(=O)N[C@H]2[C@@H](O)[C@H](n3cnc4c(N(C)C)ncnc43)O[C@@H]2CO)cc1 [puromycin]
podocyte injury (changes in nephrin gene expression) [1]: podocyte injury model, which was conventionally prepared by using mice, can be reproduced

N.N.[Cl][Pt][Cl] [cisplatin]
renal damage reflected by analysis results (gene expression, β2 microglobulin, sphere shape) [2]: renal tubular injury at the acute phase and podocyte injury at the chronic phase
expression of genes constitutively expressed in podocytes [3]: reduction

CN(C)C(=N)N=C(N)N [metformin]
abnormal changes in gene expression in acute kidney injury caused by cisplatin ([3]; pre-administration, 3 hours after cisplatin administration (left side of FIG. 7)): inhibited
